This is an account of results in patent US20240228488A1 (TAKEDA PHARMACEUTICAL COMPANY LIMITED, priority 2021, published 2024).

Where only a bound is given, the exact number is not on record here.

By IC90 is commonly meant the concentration needed for an effect of 90%. Broadly, the EC50 is the midpoint of the concentration-response curve.

One test has as its target T1, plasma kallikrein (Homo sapiens, UniProt P03952).
T1 construct: from tissue
Nature of the test: Neat human plasma assay, FXIIa contact pathway-activated, PFR-AMC substrate. The test is classed as biochemical. The settings on record: citrated human plasma 78% final, 10 nM human FXIIa, 100 μM PFR-AMC; read-out: Human Plasma Assay: IC90. The method, boiled down: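 Compound inhibition of plasma kallikrein measured as PFR-AMC (100 μM) cleavage rate over 5 min at room temperature in 78% citrated human plasma activated with 10 nM FXIIa (Tris pH 7.5 buffer). IC50/IC90 from 4-parameter fit of rate versus inhibitor concentration.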

The target of test [1] is human activated kallikrein enzyme (Homo sapiens, UniProt P03952). Nature of the test: Plasma kallikrein inhibition, fluorogenic PFR-AMC substrate, 500 pM activated kallikrein format. The settings on record: 500 pM activated kallikrein, 300 uM PFR-AMC, 30 min preincubation, 10 min reaction; read-out: Primary Dose Response Assay: Average EC50. It is filed as biochemical. The method, boiled down: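 High-enzyme format of the fluorogenic peptide assay, with EC50 taken from AMC signal: 500 pM activated kallikrein, 300 uM Pro-Phe-Arg-AMC, 30 min compound preincubation and 10 min reaction, all at room temperature, pH 7.5.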
Sequence of human activated kallikrein enzyme (P03952 391-638 limits assumed): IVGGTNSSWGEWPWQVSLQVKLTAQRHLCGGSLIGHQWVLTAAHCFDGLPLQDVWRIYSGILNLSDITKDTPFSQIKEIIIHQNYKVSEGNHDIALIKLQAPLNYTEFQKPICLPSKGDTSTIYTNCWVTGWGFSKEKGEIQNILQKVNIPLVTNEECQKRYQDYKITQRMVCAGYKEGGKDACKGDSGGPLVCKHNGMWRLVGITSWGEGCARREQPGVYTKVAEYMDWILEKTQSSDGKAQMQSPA
Sequence of human activated kallikrein enzyme (P03952 20-390 partner limits assumed): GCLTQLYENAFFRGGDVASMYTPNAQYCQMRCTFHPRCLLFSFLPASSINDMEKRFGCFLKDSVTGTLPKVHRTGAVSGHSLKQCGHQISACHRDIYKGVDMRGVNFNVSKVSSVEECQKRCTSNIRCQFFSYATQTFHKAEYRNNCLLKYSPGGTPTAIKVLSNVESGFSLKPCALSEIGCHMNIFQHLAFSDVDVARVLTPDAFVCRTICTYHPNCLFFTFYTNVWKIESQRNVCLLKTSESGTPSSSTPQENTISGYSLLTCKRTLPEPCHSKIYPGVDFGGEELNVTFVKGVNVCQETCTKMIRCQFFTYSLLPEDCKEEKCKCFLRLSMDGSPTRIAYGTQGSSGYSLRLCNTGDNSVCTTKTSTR

T1 sequence (P03952 391-638 limits assumed): as the sequence (P03952 391-638 limits assumed) above
T1 sequence (P03952 20-390 partner limits assumed): as the sequence (P03952 20-390 partner limits assumed) above

Take `O=C(Nc1cc(NCc2cn3cc(C4CC4)cc(N4CCOC4=O)c3n2)ncn1)[C@H]1C[C@@H]1c1cc(Cl)ccn1` (racemic) [Example I-173, rac-(1S*,2S*)-2-(4-chloropyridin-2-yl)-N-(6-(((6-cyclopropyl-8-(2-oxooxazolidin-3-yl)imidazo[1,2-a]pyridin-2-yl)methyl)amino)pyrimidin-4-yl)cyclopropane-1-carboxamide]: the 90% effect concentration (IC90) at plasma kallikrein was in the range of 400 to 1500 nM. Also, the EC50 in test [1] was less than 1 nM.
On the same counts, the results for `Cc1ccnc([C@H]2C[C@@H]2C(=O)Nc2cc(OCc3cn4cc(C5CC5)cc(N5CC6(COC6)OC5=O)c4n3)nc(C)n2)n1` [Example 553, (1S,2S)-N-(6-((6-cyclopropyl-8-(6-oxo-2,5-dioxa-7-azaspiro[3.4]octan-7-yl)imidazo[1,2-a]pyridin-2-yl)methoxy)-2-methylpyrimidin-4-yl)-2-(4-methylpyrimidin-2-yl)cyclopropane-1-carboxamide] are less than 400 nM and less than 1 nM.
In the case of `Cc1ccnc([C@H]2C[C@@H]2C(=O)Nc2cc(OCc3cn4cc(C5CC5)cc(N5CC(=O)N(C)C5=O)c4n3)nc(OCCN(C)C)n2)n1` [Example 563, (1S,2S)—N-(6-((6-cyclopropyl-8-(3-methyl-2,4-dioxoimidazolidin-1-yl)imidazo[1,2-a]pyridin-2-yl)methoxy)-2-(2-(dimethylamino)ethoxy)pyrimidin-4-yl)-2-(4-methylpyrimidin-2-yl)cyclopropane-1-carboxamide], the IC90 on plasma kallikrein is less than 400 nM. The EC50 in test [1] was less than 1 nM.
On the same counts, the results for `CN1CC(O)(c2cc(C3CC3)cn3cc(CNc4ccnc(NC(=O)[C@H]5C[C@@H]5c5cccc(Cl)c5)c4)nc23)C1` [Example 608, (1S,2S)-2-(3-chlorophenyl)-N-(4-(((6-cyclopropyl-8-(3-hydroxy-1-methylazetidin-3-yl)imidazo[1,2-a]pyridin-2-yl)methyl)amino)pyridin-2-yl)cyclopropane-1-carboxamide] are less than 400 nM and less than 1 nM.
`O=C(Nc1cc(NCc2cn3cc(C4CC4)cc(N4CCN5CCCC5C4)c3n2)ccn1)[C@H]1C[C@@H]1c1cccc(Cl)c1` (stereo partly drawn) [Example I-231, (1S,2S)-2-(3-chlorophenyl)-N-(4-(((6-cyclopropyl-8-(hexahydropyrrolo[1,2-a]pyrazin-2(1H)-yl)imidazo[1,2-a]pyridin-2-yl)methyl)amino)pyridin-2-yl)cyclopropane-1-carboxamide]: the 90% effect concentration (IC90) on plasma kallikrein is 400 to 1500 nM. In addition, the half-maximal effective concentration (EC50) in test [1] was less than 1 nM.
On the same counts, the results for `O=C(Nc1cc(NCc2cn3cc(C4CC4)cc(N4CCS(=O)(=O)CC4)c3n2)ncn1)[C@H]1C[C@@H]1c1cccc(Cl)c1` [Example I-10, (1S,2S)-2-(3-chlorophenyl)-N-(6-(((6-cyclopropyl-8-(1,1-dioxidothiomorpholino)imidazo[1,2-a]pyridin-2-yl)methyl)amino)pyrimidin-4-yl)cyclopropane-1-carboxamide] are 1500 to 10000 nM and 1 to 10 nM.
On the same counts, the results for `Cc1cc(C)nc([C@H]2C[C@@H]2C(=O)Nc2cc(NCc3cn4cc(C5CC5)cc(N5CC(=O)N(C)C5=O)c4n3)ncn2)n1` (racemic) [Example 497, rac-(1S*,2S*)-N-(6-(((6-cyclopropyl-8-(3-methyl-2,4-dioxoimidazolidin-1-yl)imidazo[1,2-a]pyridin-2-yl)methyl)amino)pyrimidin-4-yl)-2-(4,6-dimethylpyrimidin-2-yl)cyclopropane-1-carboxamide] are 400 to 1500 nM and less than 1 nM.
On the same counts, the results for `Cc1nccc([C@H]2C[C@@H]2C(=O)Nc2cc(NCc3cn4cc(C5CC5)cc(N5CC(=O)N(C)C5=O)c4n3)ncn2)n1` (racemic) [Example 499, rac-(1S*,2S*)-N-(6-(((6-cyclopropyl-8-(3-methyl-2,4-dioxoimidazolidin-1-yl)imidazo[1,2-a]pyridin-2-yl)methyl)amino)pyrimidin-4-yl)-2-(2-methylpyrimidin-4-yl)cyclopropane-1-carboxamide] are 400 to 1500 nM and 1 to 10 nM.
Turning to `O=C(Nc1cc(NCc2cn3cc(C4CC4)ccc3n2)ccn1)[C@@]1(F)C[C@@H]1c1cccc(Cl)c1` (racemic) [Example I-217, rac-(1S*,2S*)-2-(3-chlorophenyl)-N-(4-(((6-cyclopropylimidazo[1,2-a]pyridin-2-yl)methyl)amino)pyridin-2-yl)-1-fluorocyclopropane-1-carboxamide], at plasma kallikrein, the concentration for an effect of 90% (IC90) fell in the range of 10000 to 48000 nM. Moreover, the EC50 in test [1] was 1 to 10 nM.
On the same counts, the results for `Cc1ccnc([C@H]2C[C@@H]2C(=O)Nc2cc(N3C[C@@H](O)C[C@@H]3c3cn4cc(C5CC5)cc(N5CC(=O)N(C)C5=O)c4n3)ncn2)n1` (relative stereo) [Example 473, rac-(1S*,2S*)-N-(6-((2R,4S)-2-(6-cyclopropyl-8-(3-methyl-2,4-dioxoimidazolidin-1-yl)imidazo[1,2-a]pyridin-2-yl)-4-hydroxypyrrolidin-1-yl)pyrimidin-4-yl)-2-(4-methylpyrimidin-2-yl)cyclopropane-1-carboxamide] are 400 to 1500 nM and less than 1 nM.
On the same counts, the results for `Cc1cc(OCc2cn3cc(C4CC4)cc(N4CC(=O)N(C)C4=O)c3n2)cc(NC(=O)[C@H]2C[C@@H]2c2nccc(C)n2)n1` [Example 34, (1S,2S)—N-(4-((6-cyclopropyl-8-(3-methyl-2,4-dioxoimidazolidin-1-yl)imidazo[1,2-a]pyridin-2-yl)methoxy)-6-methylpyridin-2-yl)-2-(4-methylpyrimidin-2-yl)cyclopropane-1-carboxamide] are less than 400 nM and less than 1 nM.
For `COc1nc(NC(=O)[C@H]2C[C@@H]2c2nccc(C)n2)cc(N[C@H](C)c2cn3cc(C4CC4)cc(N4CC(=O)N(C)C4=O)c3n2)n1` [Example 407, (1S,2S)-N-(6-(((R)-1-(6-cyclopropyl-8-(3-methyl-2,4-dioxoimidazolidin-1-yl)imidazo[1,2-a]pyridin-2-yl)ethyl)amino)-2-methoxypyrimidin-4-yl)-2-(4-methylpyrimidin-2-yl)cyclopropane-1-carboxamide] the same measures were 400 to 1500 nM and less than 1 nM.
As to `[2H]C([2H])(Nc1cc(NC(=O)[C@H]2C[C@@H]2c2nccc(C)n2)ncn1)c1cn2cc(C3CC3)cc(N3CC(=O)N(C)C3=O)c2n1` (racemic) [Example 391, rac-(1S*,2S*)-N-(6-(((6-cyclopropyl-8-(3-methyl-2,4-dioxoimidazolidin-1-yl)imidazo[1,2-a]pyridin-2-yl)methyl-d2)amino)pyrimidin-4-yl)-2-(4-methylpyrimidin-2-yl)cyclopropane-1-carboxamide], the IC90 on plasma kallikrein is less than 400 nM. Further, the concentration for a half-maximal effect (EC50) in test [1] is less than 1 nM.
For `COCc1nc(NC(=O)[C@H]2C[C@@H]2c2nccc(C)n2)cc(N(C)Cc2cn3cc(C4CC4)cc(N4CC(=O)N(C)C4=O)c3n2)n1` [Example 354, (1S,2S)-N-(6-(((6-cyclopropyl-8-(3-methyl-2,4-dioxoimidazolidin-1-yl)imidazo[1,2-a]pyridin-2-yl)methyl)(methyl)amino)-2-(methoxymethyl)pyrimidin-4-yl)-2-(4-methylpyrimidin-2-yl)cyclopropane-1-carboxamide] the same measures were less than 400 nM and less than 1 nM.
